pIC50: −log10 of the molar value.

The text below walks through data of patent US9777002B2, “Inhibitors of the renal outer medullary potassium channel” (Merck Sharp & Dohme Corp., priority 2012, dated 2017).

In this assay the target is T1, hROMK (hKir1.1) (Homo sapiens, UniProt P48048).
T1 construct: expressed in transfected cells
T1 sequence (P48048 1-391): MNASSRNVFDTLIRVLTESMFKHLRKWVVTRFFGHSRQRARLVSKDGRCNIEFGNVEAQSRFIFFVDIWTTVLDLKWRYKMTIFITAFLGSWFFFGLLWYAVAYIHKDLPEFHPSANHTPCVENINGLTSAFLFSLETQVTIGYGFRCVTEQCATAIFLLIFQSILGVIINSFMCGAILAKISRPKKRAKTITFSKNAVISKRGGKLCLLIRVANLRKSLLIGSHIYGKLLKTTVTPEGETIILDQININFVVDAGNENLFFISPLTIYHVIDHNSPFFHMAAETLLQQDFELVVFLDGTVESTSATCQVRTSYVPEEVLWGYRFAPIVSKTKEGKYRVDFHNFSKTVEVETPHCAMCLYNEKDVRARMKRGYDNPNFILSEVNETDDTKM
Briefly: Thallium Flux Assay. The assay is classed as cell-based. As to conditions: HEK293 cells stably expressing hROMK (hKir1.1). The protocol: Cell Culture Conditions—HEK293 cells stably expressing hROMK (hKir1.1) were grown at 37° C. in a 10% CO2 humidified incubator in complete growth media: Dulbecco's Modified Eagle Medium supplemented with non-essential amino acids, Penicillin/Streptomycin/Glutamine, G418 and FBS. At >80% confluency, aspirate the media from the flask and rinse with 10 mL Calcium/Magnesium-free PBS. Add 5 mL of 1× trypsin (prepared in Ca/Mg Free PBS) to T-225 flask and return flask to 37° C./CO2 incubator for 2-3 minutes. To dislodge the cell, gently bang the side of the flask with your hand. Triturate the cells completely and then transfer the cells to 25 mL complete media. Centrifuge at 1,500 rpm for 6 min followed by resuspension in complete growth media and determine cell concentration. For typical re-seeding, 4E6 cells/T-225 flask will attain >80% confluency in 4 days. Under ideal growth conditions and appropriate tissue culture practices, this cell line is stable for 40-45 passages.
FluxOR Kit Components (Invitrogen F10017)
• FluxOR™ Reagent (Component A) • FluxOR™ Assay Buffer (Component B)—10× Concentrate • PowerLoad™ Concentrate (Component C)—100× Concentrate • Probenecid (Component D)—Lyophilized sample is kept at −20° C. Water soluble, 100× after solubilization in 1 mL water. Store at 4° C. • FluxOR™ Chloride-free Buffer (Component E)—5× Concentrate • Potassium sulfate (K2SO4) Concentrate (Component F)—125 mM in water. Store at 4° C. • Thallium sulfate (Tl2SO4) Concentrate (Component G)—50 mM in water. Store at 4° C. • DMSO (dimethyl sulfoxide, Component H)—1 mL (100%) Reagent Preparation: FluxOR Working Solutions • 1000× FluxOR™ Reagent: Reconstitute a vial of component A in 100 μl DMSO; Mix well; Store 10 μl aliquots at −20° C. • 1× FluxOR™ Assay Buffer: Dilute Component B 10-fold with water; Adjust pH to 7.4 with Hepes/NaOH; Filter and store at 4° C. • Probenecid/Assay Buffer: 100 mL of 1× FluxOR™ Assay Buffer; 1 mL of reconstituted component D; Store at 4° C. • Loading Buffer (per microplate): 10 μl 1000× FluxOR™ Reagent; 100 μl component C; 10 mL Probenecid/Assay Buffer • Compound Buffer (per microplate): 20 mL Probenecid/Assay Buffer; 0.3 mM ouabain (10 mM ouabain in water can be stored in amber bottle/aluminum foil at room temperature); Test compound • 1× FluxOR™ Chloride-Free Buffer: Prepare 1× working solution in water. Can be stored at room temperature • Stimulant Buffer (prepared at 5× final concentration in 1× FluxOR™Chloride-Free Buffer): 7.5 mM Thallium sulfate and 0.75 mM Potassium sulfate (to give a final assay concentration of 3 mM Thallium/0.3 mM Potassium). Store at 4° C. when not in use. If kept sterile, this solution is good for months.
Assay Protocol—The ROMK channel functional thallium flux assay is performed in 384 wells, using the FLIPR-Tetra instrument. HEK-hKir1.1 cells are seeded in Poly-D-Lysine microplates and kept in a 37° C.-10% CO2 incubator overnight. On the day of the experiment, the growth media is replaced with the FluxOR™ reagent loading buffer and incubated, protected from light, at ambient temperature (23-25° C.) for 90 min. The loading buffer is replaced with assay buffer± test compound followed by 30 min incubation at ambient temperature, where the Thallium/Potassium stimulant is added to the microplate.
• 1. Seed HEK-hKir1.1 cells (50 μl at 20,000 cells/well) in 384-well PDL coated Microplates • 2. Allow cells to adhere overnight in humidified 37° C./10% CO2 incubator • 3. Completely remove cell growth media from microplate and replace with 25 μl loading buffer • 4. Incubate Microplate at room temperature, protected form light, for 90 min • 5. Remove loading buffer and replace with 25 μl 1× Assay Buffer±test compound. • 6. Incubate microplate at room temperature, protected from light, for 30 min • 7. At FLIPR-Tetra 384: Add stimulant (Thallium/Potassium) solution to microplate and monitor fluorescence. Excitation=400 nm, Emission=460 & 580 nm. Collect data for ˜10 min. […]
As usually defined, the pIC50 is −log10 of the IC50, conventionally taken in molar units. A higher pIC50 goes with a small IC50. For `Cc1c([C@@H](O)CN2CC[C@H](NC(=O)c3ccc(C#N)cn3)[C@H](F)C2)ccc2c1COC2=O` (single isomer, unassigned) [43 B], the negative-log IC50 (pIC50) was 6.74.
For `Cc1nc(C(=O)N[C@H]2CCN(C[C@H](O)c3ccc4c(c3C)COC4=O)C[C@H]2F)ccc1C#N` (single isomer, unassigned) [44 A], the negative logarithm of the IC50 (pIC50) was 6.24. This pIC50 is 0.50 log units lower than that of the compound before.
Then `Cc1nc(C(=O)N[C@H]2CCN(C[C@H](O)c3ccc4c(c3C)COC4=O)C[C@H]2F)ccc1C#N` (single isomer, unassigned) [44 B], with 6.59; and `Cc1c([C@@H](O)CN2CCC(NC(=O)c3ccc(C#N)nc3)C(F)C2)ccc2c1COC2=O` (single isomer, unassigned) [46 A], with 6.28; and `Cc1c([C@@H](O)CN2CCC(NC(=O)c3ccc(C#N)nc3)C(F)C2)ccc2c1COC2=O` (single isomer, unassigned) [46 B], with 6.19.
Then `Cc1cc(C(=O)N[C@H]2CCN(C[C@H](O)c3ccc4c(c3C)COC4=O)C[C@H]2F)ccc1C#N` (single isomer, unassigned) [47 A], with 6.80; and `Cc1cc(C(=O)N[C@H]2CCN(C[C@H](O)c3ccc4c(c3C)COC4=O)C[C@H]2F)ccc1C#N` (single isomer, unassigned) [47 B], with 6.74.
In turn, `Cc1cc(C(=O)NC2CCN(C[C@H](O)c3ccc4c(c3C)COC4=O)CC2F)ncc1C#N` (single isomer, unassigned) [48 A] gave a pIC50 of 7.10.
Then `Cc1cc(C(=O)NC2CCN(C[C@H](O)c3ccc4c(c3C)COC4=O)CC2F)ncc1C#N` (single isomer, unassigned) [48 B], with 7.00; and `Cc1c([C@@H](O)CN2CC[C@H](NC(=O)c3ccc(-n4cnnn4)nc3)[C@H](F)C2)ccc2c1COC2=O` (single isomer, unassigned) [50 A], with 7.00; and `Cc1c([C@@H](O)CN2CC[C@H](NC(=O)c3ccc(-n4cnnn4)nc3)[C@H](F)C2)ccc2c1COC2=O` (single isomer, unassigned) [50 B], with 6.03.
Then `CO[C@@H]1CN(C[C@H](O)c2ccc3c(c2C)COC3=O)CC[C@@H]1NC(=O)c1ccc(-n2cnnn2)nc1` (single isomer, unassigned) [54 A], with 6.12; and `CO[C@@H]1CN(C[C@H](O)c2ccc3c(c2C)COC3=O)CC[C@@H]1NC(=O)c1ccc(-n2cnnn2)nc1` (single isomer, unassigned) [54 B], with 6.47; and `Cc1c([C@@H](O)CN2CC[C@H](NC(=O)c3ccc(-n4cnnn4)cn3)[C@H](F)C2)ccc2c1COC2=O` (single isomer, unassigned) [58 A], with 6.27.
Then `Cc1c([C@@H](O)CN2CC[C@H](NC(=O)c3ccc(-n4cnnn4)cn3)[C@H](F)C2)ccc2c1COC2=O` (single isomer, unassigned) [58 B], with 6.06; and `Cc1c([C@@H](O)CN2CCC(C)(CNC(=O)c3ccc(-n4cnnn4)cn3)C2)ccc2c1COC2=O` (single isomer, unassigned) [69 A], with 6.06.
Turning to `Cc1c([C@@H](O)CN2CCC(C)(CNC(=O)c3ccc(-n4cnnn4)cn3)C2)ccc2c1COC2=O` (single isomer, unassigned) [69 B], the pIC50 was 6.31.
Under `Cc1c([C@@H](O)CN2CCC(CNC(=O)c3ccc(-n4cnnn4)nc3)(c3ccccc3)C2)ccc2c1COC2=O` (single isomer, unassigned) [81 A] stands 6.21.
With `Cc1c([C@@H](O)CN2CCC(CNC(=O)c3ccc(-n4cnnn4)nc3)(c3ccccc3)C2)ccc2c1COC2=O` (single isomer, unassigned) [81 B], the pIC50 is 6.80. This pIC50 is 0.59 log units higher than that of the compound before.
Then `Cc1c([C@@H](O)CN2CCC(C3(NC(=O)c4ccc(-n5cnnn5)nc4)CCC3)C2)ccc2c1COC2=O` (single isomer, unassigned) [90 A], with 6.13.
Then `Cc1c([C@@H](O)CN2CCC(C3(NC(=O)c4ccc(-n5cnnn5)nc4)CCC3)C2)ccc2c1COC2=O` (single isomer, unassigned) [90 B], with 6.55.
Then `Cc1c(CCN2CCC(N(C)C(=O)c3ccc4c(c3)COC4=O)CC2)ccc2c1COC2=O` [Example 2, N-Methyl-N-(1-(2-(4-methyl-1-oxo-1,3-dihydroisobenzofuran-5-yl)ethyl)piperidin-4-yl)-1-oxo-1,3-dihydroisobenzofuran-5-carboxamide], with 6.22; and `Cc1c(CCN2CCC(NC(=O)c3ccc(-n4cnnn4)nc3)CC2)ccc2c1COC2=O` [Example 3, N-(1-(2-(4-Methyl-1-oxo-1,3-dihydroisobenzofuran-5-yl)ethyl)piperidin-4-yl)-6-(1H-tetrazol-1-yl)nicotinamide], with 6.30; and `C[C@H]1Cc2cc(CCN3CCC(NC(=O)c4ccc5c(c4)COC5=O)CC3)ccc2C(=O)O1` [Example 4, (S)-N-(1-(2-(3-methyl-1-oxoisochroman-6-yl)ethyl)piperidin-4-yl)-1-oxo-1,3-dihydroisobenzofuran-5-carboxamide], with 6.49.
Compound `COc1cc(C(=O)NC2CCN(CCc3ccc4c(c3C)COC4=O)CC2)ccc1C#N` [Example 5, 4-Cyano-3-methoxy-N-(1-(2-(4-methyl-1-oxo-1,3-dihydroisobenzofuran-5-yl)ethyl)piperidin-4-yl)benzamide] had a negative logarithm of the IC50 (pIC50) of 7.70. This pIC50 is 1.21 log units higher than that of the compound before.
Under `Cc1c(C(O)CN2CCC(NC(=O)c3ccc4c(c3)COC4=O)CC2)ccc2c1COC2=O` (centres unmarked) [Example 6, N-(1-(2-Hydroxy-2-(4-methyl-1-oxo-1,3-dihydroisobenzofuran-5-yl)ethyl)piperidin-4-yl)-1-oxo-1,3-dihydroisobenzofuran-5-carboxamide] stands 7.40; under `COc1cc(C(=O)NC2CCN(CC(O)c3ccc4c(c3C)COC4=O)CC2)ccc1C#N` (centres unmarked) [Example 7, 4-Cyano-N-(1-(2-hydroxy-2-(4-methyl-1-oxo-1,3-dihydroisobenzofuran-5-yl)ethyl)piperidin-4-yl)-3-methoxybenzamide], 8.00; under `Cc1c(CCN2CCC(NC(=O)c3ccc4nonc4c3)CC2)ccc2c1COC2=O` [Example 8, N-(1-(2-(4-Methyl-1-oxo-1,3-dihydroisobenzofuran-5-yl)ethyl)piperidin-4-yl)benzo[c][1,2,5]oxadiazole-5-carboxamide], 6.34.
As to `COc1ccc(C(=O)NC2CCN(CCc3ccc4c(c3C)COC4=O)CC2)cc1C#N` [Example 9, 3-Cyano-4-methoxy-N-(1-(2-(4-methyl-1-oxo-1,3-dihydroisobenzofuran-5-yl)ethyl)piperidin-4-yl)benzamide], the pIC50 is 7.52.
